Results on 12 compounds are retold here after ChEMBL document CHEMBL1201862, “PubChem BioAssay data set” (2004).

Structures are written as SMILES.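 Exposure lasted 48 hours, with cells grown in 96-well plates and compounds tested at five concentrations. GI50 = concentration required for 50% inhibition of growth.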 Active and inactive are the calls of the source. Cut-off read from the data, not from the text of the source: active = GI50 up to about 1.1 µM and inactive = higher.

Test systems include OVCAR-8; UACC-257; SNB-75; RXF 393; NCI/ADR-RES; M14; T47D; SF-295; UACC-62; PC-3; IGROV-1; SF-539; HCT-15; HCT-116; MCF7; U-251; 786-0; SNB-19; Hs-578T.
Assay in all cases: NCI-60 cell line screen, 48 h

As to `CCOC(=O)COc1cc(-c2ccccc2)nc2cc(F)ccc12`, the GI50 with OVCAR-8, in the assay with UACC-257, in the assay with SNB-75, with RXF 393, with NCI/ADR-RES and in the assay with M14 was > 100 µM (inactive) in each case. The GI50 in the assay on T47D is > 100 µM (inactive); in the assay on SF-295 it was > 100 µM (inactive); with UACC-62, > 100 µM (inactive); in the assay with PC-3 it was > 100 µM (inactive); in the assay with IGROV-1 it was > 100 µM (inactive); with SF-539 it was 39.7 µM (inactive). For the same compound, the GI50 is above 100 µM in the assay on HCT-15; > 100 µM (inactive) in the assay on HCT-116; > 100 µM (inactive) in the assay with MCF7; > 100 µM (inactive) in the assay on U-251; > 100 µM (inactive) with 786-0.

For the compound `CNc1nc(N)c(N=O)c(Nc2ccc(Br)cc2)n1`, the GI50 was > 100 µM (inactive) in the assay with OVCAR-8; > 100 µM (inactive) in the assay with UACC-257; 68.5 µM (inactive) in the assay with SNB-75; > 100 µM (inactive) in the assay with SNB-19; > 100 µM (inactive) in the assay on RXF 393; > 100 µM (inactive) in the assay on NCI/ADR-RES. The GI50 in the assay on Hs-578T was 5.35 µM (inactive); in the assay on SF-295, > 100 µM (inactive); in the assay on UACC-62 it was > 100 µM (inactive); in the assay on PC-3 it was > 100 µM (inactive); in the assay with IGROV-1, > 100 µM (inactive); with SF-539, > 100 µM (inactive). Also, the GI50 was above 100 µM in the assay on HCT-15; > 100 µM (inactive) in the assay on HCT-116; > 100 µM (inactive) in the assay with MCF7; 61.8 µM (inactive) with U-251; > 100 µM (inactive) in the assay on 786-0.

Take `O=S(=O)(c1ccccc1)C1(CCC2OCCO2)C=CC2(CC1)OCCO2` (configuration not stated): the GI50 with OVCAR-8, with UACC-257, in the assay with SNB-75, in the assay with SNB-19, with NCI/ADR-RES and in the assay on M14 was > 100 µM (inactive) in each case. Further, the GI50 was > 100 µM (inactive) with T47D; > 100 µM (inactive) with SF-295; > 100 µM (inactive) with UACC-62; > 10 µM (inactive) with PC-3; > 100 µM (inactive) in the assay with IGROV-1; above 100 µM in the assay on HCT-15. The GI50 with HCT-116, in the assay on MCF7, in the assay on U-251 and with 786-0 was > 100 µM (inactive) each time.

For `O=C1/C(=C/c2ccc(O)cc2)NC(=S)N1CN1CCCCC1`, the GI50 in the assay with OVCAR-8 is 53.5 µM (inactive); in the assay with SNB-75, > 100 µM (inactive); in the assay with SNB-19, 89.5 µM (inactive); in the assay on NCI/ADR-RES, > 100 µM (inactive); in the assay with Hs-578T it was 85.5 µM (inactive); in the assay on M14, 59.2 µM (inactive). Moreover, the GI50 is 89.7 µM (inactive) in the assay with SF-295; 42.9 µM (inactive) in the assay with UACC-62; 53.2 µM (inactive) in the assay on PC-3; 98.9 µM (inactive) with IGROV-1; 31.8 µM in the assay on HCT-15; 45.8 µM (inactive) with HCT-116. The GI50 with MCF7 was 21.3 µM (inactive); with U-251, 49.8 µM (inactive); in the assay with 786-0, 62.2 µM (inactive).

Regarding `Cc1c(Cl)cccc1/N=N/C(=O)NNc1cccc(Cl)c1C`, the GI50 in the assay with OVCAR-8 was 13.5 µM (inactive); in the assay on UACC-257 it was 23.1 µM (inactive); in the assay with SNB-75 it was 18 µM (inactive); in the assay on SNB-19, 17.9 µM (inactive); in the assay with M14, 19.2 µM (inactive); with T47D, 10.7 µM (inactive). The GI50 is 11.9 µM (inactive) with UACC-62; 13.3 µM (inactive) in the assay with PC-3; 6.37 µM (inactive) in the assay on IGROV-1; 14.3 µM with HCT-15; 15.3 µM (inactive) in the assay with HCT-116; 16.2 µM (inactive) in the assay on U-251. Further, the GI50 with 786-0 was 23.1 µM (inactive).

Regarding `C[C@H]1[C@H](N2CCCC2)O[Si](C(C)(C)C)(C(C)(C)C)[C@@H]1C`, the GI50 in the assay on OVCAR-8 is > 100 µM (inactive); in the assay on UACC-257 it was > 100 µM (inactive); with SNB-75, 74.6 µM (inactive); in the assay with SNB-19, 0.964 µM (active); in the assay with NCI/ADR-RES it was > 100 µM (inactive); in the assay on M14, > 100 µM (inactive). Also, the GI50 with T47D was > 100 µM (inactive); in the assay with SF-295 it was > 100 µM (inactive); in the assay with UACC-62, > 100 µM (inactive); with PC-3 it was 99.5 µM (inactive); with IGROV-1, > 100 µM (inactive); with SF-539 it was > 100 µM (inactive). The GI50 in the assay on HCT-15 is above 100 µM; with HCT-116 it was > 100 µM (inactive); in the assay on MCF7, > 100 µM (inactive); in the assay with U-251, > 100 µM (inactive); with 786-0, > 100 µM (inactive).

For `NCc1ccc(-c2ccc(CN)s2)s1`, the GI50 in the assay on OVCAR-8 was 86.5 µM (inactive); in the assay with UACC-257, 42.4 µM (inactive); in the assay with SNB-75, > 100 µM (inactive); in the assay on SNB-19, > 100 µM (inactive); in the assay with RXF 393, > 100 µM (inactive); in the assay on NCI/ADR-RES, 13.1 µM (inactive). Besides, the GI50 with M14 was > 100 µM (inactive); in the assay with T47D, 69.8 µM (inactive); with SF-295, > 100 µM (inactive); with UACC-62, 14.6 µM (inactive); in the assay on PC-3 it was > 100 µM (inactive); in the assay on IGROV-1, 10.9 µM (inactive). Besides, the GI50 in the assay on SF-539 was > 100 µM (inactive); in the assay on HCT-15 it was above 100 µM; in the assay with HCT-116, > 100 µM (inactive); in the assay on MCF7, 44 µM (inactive); in the assay with U-251, > 100 µM (inactive); in the assay on 786-0, > 100 µM (inactive).

Turning to `CC(C)(C)C1CCC2c3c([nH]c4ccccc34)C3C(=O)N(c4ccc(C(=O)O)cc4)C(=O)C3C2C1` (configuration not stated), the GI50 is 12 µM (inactive) in the assay with OVCAR-8; 13.9 µM (inactive) with UACC-257; 16.8 µM (inactive) with SNB-19; 10.9 µM (inactive) in the assay on RXF 393; 16.7 µM (inactive) in the assay with NCI/ADR-RES; 17.6 µM (inactive) in the assay on Hs-578T. Also, the GI50 was 16.8 µM (inactive) in the assay with M14; 10.1 µM (inactive) in the assay on SF-295; 14.2 µM (inactive) in the assay on UACC-62; 13.4 µM (inactive) in the assay with PC-3; 18.5 µM (inactive) in the assay on IGROV-1; 17.2 µM (inactive) in the assay on SF-539. Further, the GI50 is 12 µM with HCT-15; 14.4 µM (inactive) with HCT-116; 11 µM (inactive) in the assay on MCF7; 13.4 µM (inactive) in the assay on U-251; 15.7 µM (inactive) in the assay on 786-0.

With `COc1ccc(CCc2nccn2C)cc1OC`, the GI50 in the assay on OVCAR-8, in the assay on UACC-257, in the assay on SNB-19, in the assay with NCI/ADR-RES, in the assay with Hs-578T and in the assay with M14 was > 100 µM (inactive) throughout. The GI50 in the assay on SF-295 is > 100 µM (inactive); in the assay with UACC-62, > 100 µM (inactive); in the assay with PC-3 it was > 100 µM (inactive); with IGROV-1, > 100 µM (inactive); in the assay with SF-539, > 100 µM (inactive); in the assay with HCT-15 it was above 100 µM. Moreover, the GI50 in the assay with HCT-116, in the assay on MCF7 and in the assay with 786-0 was > 100 µM (inactive) each time.

For `O=C(c1cscc1CCc1ccccc1)c1cscc1CCc1ccccc1`, the GI50 with OVCAR-8, in the assay with UACC-257, with SNB-75, with SNB-19, in the assay with RXF 393 and in the assay on NCI/ADR-RES was > 100 µM (inactive) in each case. Also, the GI50 with M14 was > 100 µM (inactive); in the assay on T47D it was 11.6 µM (inactive); in the assay on SF-295, > 100 µM (inactive); with UACC-62, > 100 µM (inactive); with PC-3, > 100 µM (inactive); with IGROV-1, 31.6 µM (inactive). Moreover, the GI50 in the assay on SF-539 is > 100 µM (inactive); with HCT-15 it was above 100 µM; in the assay on HCT-116 it was > 100 µM (inactive); in the assay with MCF7 it was > 100 µM (inactive); with U-251, > 100 µM (inactive); with 786-0, > 100 µM (inactive).

Consider `CC(CCOc1c2ccoc2cc2oc(=O)ccc12)C1=CC(=O)C(C)(C)O1` (configuration not stated), for which the GI50 with OVCAR-8, in the assay with UACC-257, in the assay on SNB-19, in the assay on RXF 393, with NCI/ADR-RES and with Hs-578T was > 100 µM (inactive) in each case. The GI50 in the assay on M14, in the assay on SF-295, in the assay with UACC-62, in the assay with PC-3, with IGROV-1 and with SF-539 was > 100 µM (inactive) throughout. In addition, the GI50 in the assay with HCT-15 was above 100 µM; in the assay on HCT-116, > 100 µM (inactive); in the assay on MCF7, > 100 µM (inactive); in the assay on U-251 it was > 100 µM (inactive); in the assay on 786-0, > 100 µM (inactive).

Take `C/C1=C\CC[C@@]2(C)O[C@@H]2[C@H]2OC(=O)C(C)C2C[C@H]1O` (some centres not stated): the GI50 with OVCAR-8, with UACC-257, with SNB-75, in the assay on SNB-19, with RXF 393 and in the assay on NCI/ADR-RES was > 100 µM (inactive) in each case. Also, the GI50 in the assay with Hs-578T was 10.3 µM (inactive); with M14 it was > 100 µM (inactive); with SF-295, > 100 µM (inactive); with UACC-62, > 100 µM (inactive); with PC-3 it was > 100 µM (inactive); with IGROV-1, > 100 µM (inactive). Moreover, the GI50 with HCT-15 was above 100 µM; with HCT-116 it was > 100 µM (inactive); with MCF7, > 100 µM (inactive); with U-251 it was > 100 µM (inactive); with 786-0 it was > 100 µM (inactive).
